Source: PubChem BioAssay AID256 (DTP/NCI, 2004)
Several values for one entry are separate records, joined by “and”; a condition that tells them apart may be missing. Equal values may be shown once. Inconclusive results and toxic doses are left out. How the source made its calls: active means survival T/C of 150% or more; inactive means T/C below 125% in these data.

Tested on: CD2F1 mice, L1210 leukemia ip, survival T/C
Assay: NCI In Vivo Anticancer Drug Screen. Data for tumor model L1210 Leukemia (intraperitoneal) in CD2F1 (CDF1) mice
Conditions: higher = longer survival
In short: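 Implant tumor; dose compound or vehicle; measure endpoint in both groups; report treated divided by control.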

[1] = endpoint: mean survival time, dose: 100.0 mg/kg/injection, schedule: Q01DX009 (ip), vehicle: saline with Tween-80
[2] = endpoint: mean survival time, dose: 200.0 mg/kg/injection, schedule: Q01DX009 (ip), vehicle: saline with Tween-80
[3] = endpoint: mean survival time, dose: 400.0 mg/kg/injection, schedule: Q01DX009 (ip), vehicle: saline with Tween-80
[4] = endpoint: mean survival time, dose: 100.0 mg/kg/injection, schedule: Q04DX003 (ip), vehicle: other
[5] = endpoint: mean survival time, dose: 200.0 mg/kg/injection, schedule: Q04DX003 (ip), vehicle: other
[6] = endpoint: mean survival time, dose: 100.0 mg/kg/injection, schedule: Q04DX002 (ip), vehicle: saline with Tween-80
[7] = endpoint: mean survival time, dose: 100.0 mg/kg/injection, schedule: Q04DX003 (ip), vehicle: saline with Tween-80
[8] = endpoint: mean survival time, dose: 200.0 mg/kg/injection, schedule: Q04DX002 (ip), vehicle: saline with Tween-80
[9] = endpoint: mean survival time, dose: 200.0 mg/kg/injection, schedule: Q04DX003 (ip), vehicle: saline with Tween-80
[10] = endpoint: mean survival time, dose: 400.0 mg/kg/injection, schedule: Q04DX002 (ip), vehicle: saline with Tween-80
[11] = endpoint: mean survival time, dose: 12.5 mg/kg/injection, schedule: Q01DX009 (ip), vehicle: saline with Tween-80
[12] = endpoint: mean survival time, dose: 50.0 mg/kg/injection, schedule: Q01DX009 (ip), vehicle: saline with Tween-80
[13] = endpoint: mean survival time, dose: 25.0 mg/kg/injection, schedule: Q01DX009 (ip), vehicle: Klucel (hydroxypropylcellulose) (HPC)
[14] = endpoint: mean survival time, dose: 50.0 mg/kg/injection, schedule: Q01DX009 (ip), vehicle: Klucel (hydroxypropylcellulose) (HPC)
[15] = endpoint: mean survival time, dose: 400.0 mg/kg/injection, schedule: Q04DX003 (ip), vehicle: saline with Tween-80

Measured: T/C

Nc1ccc(Cn2ccc3c4c(N)nc(N)nc4ccc32)cc1
active: endpoint: median survival time, dose: 20.0 mg/kg/injection, schedule: Q01DX009 (ip), vehicle: saline with Tween-80 152 % of control
inactive: endpoint: mean survival time, dose: 1.25 mg/kg/injection, schedule: Q01DX005 (ip), vehicle: saline with Tween-80 101 % of control | endpoint: mean survival time, dose: 1.25 mg/kg/injection, schedule: Q01DX009 (ip), vehicle: saline with Tween-80 101 % of control and 102 % of control and 108 % of control | endpoint: mean survival time, dose: 2.5 mg/kg/injection, schedule: Q01DX005 (ip), vehicle: saline with Tween-80 111 % of control | endpoint: mean survival time, dose: 5.0 mg/kg/injection, schedule: Q01DX005 (ip), vehicle: saline with Tween-80 110 % of control | endpoint: mean survival time, dose: 10.0 mg/kg/injection, schedule: Q01DX005 (ip), vehicle: saline with Tween-80 123 % of control | endpoint: mean survival time, dose: 20.0 mg/kg/injection, schedule: Q01DX005 (ip), vehicle: saline with Tween-80 106 % of control | endpoint: mean survival time, dose: 30.0 mg/kg/injection, schedule: Q01DX005 (ip), vehicle: saline with Tween-80 117 % of control | endpoint: median survival time, dose: 1.25 mg/kg/injection, schedule: Q01DX009 (ip), vehicle: saline with Tween-80 103 % of control and 108 % of control | endpoint: median survival time, dose: 2.5 mg/kg/injection, schedule: Q01DX009 (ip), vehicle: saline with Tween-80 118 % of control and 103 % of control | endpoint: median survival time, dose: 5.0 mg/kg/injection, schedule: Q01DX009 (ip), vehicle: saline with Tween-80 124 % of control and 103 % of control | endpoint: median survival time, dose: 10.0 mg/kg/injection, schedule: Q01DX009 (ip), vehicle: saline with Tween-80 113 % of control

CCCCNP1(NCCCC)=NP(NCCCC)(NCCCC)=NP(NCCCC)(NCCCC)=NP(NCCCC)(NCCCC)=N1
inactive: endpoint: median survival time, dose: 12.5 mg/kg/injection, schedule: Q01DX009 (ip), vehicle: saline with Tween-80 107 % of control | endpoint: median survival time, dose: 25.0 mg/kg/injection, schedule: Q01DX009 (ip), vehicle: saline with Tween-80 107 % of control | endpoint: median survival time, dose: 50.0 mg/kg/injection, schedule: Q01DX009 (ip), vehicle: saline with Tween-80 97 % of control

CC(/C=N/N=C(N)N)=N\N=C(N)N
inactive: endpoint: mean survival time, dose: 12.5 mg/kg/injection, schedule: Q04DX003 (ip), vehicle: Klucel (hydroxypropylcellulose) (HPC) 97 % of control | endpoint: mean survival time, dose: 25.0 mg/kg/injection, schedule: Q04DX003 (ip), vehicle: Klucel (hydroxypropylcellulose) (HPC) 98 % of control | endpoint: mean survival time, dose: 50.0 mg/kg/injection, schedule: Q04DX003 (ip), vehicle: Klucel (hydroxypropylcellulose) (HPC) 110 % of control | endpoint: mean survival time, dose: 53.6 mg/kg/injection, schedule: Q03HX024 (ip), vehicle: clinical formulation 92 % of control | endpoint: median survival time, dose: 120.0 mg/kg/injection, schedule: Q01DX009 (ip), vehicle: saline 87 % of control

CCN(C(=O)Nc1cc([N+](=O)[O-])ccc1C)c1cc(C)ccc1OC
inactive: [1] 88 % of control | [2] 94 % of control | [3] 94 % of control

CN(C)c1nc2c(c(=O)n(C)c(=O)n2C)n1C
inactive: endpoint: mean survival time, dose: 12.5 mg/kg/injection, schedule: Q01DX005 (ip), vehicle: distilled water + Tween-80 94 % of control | endpoint: mean survival time, dose: 25.0 mg/kg/injection, schedule: Q01DX005 (ip), vehicle: distilled water + Tween-80 93 % of control | endpoint: mean survival time, dose: 50.0 mg/kg/injection, schedule: Q01DX005 (ip), vehicle: distilled water + Tween-80 93 % of control | endpoint: mean survival time, dose: 100.0 mg/kg/injection, schedule: Q01DX005 (ip), vehicle: distilled water + Tween-80 88 % of control

CC(=O)OC(c1ccccc1)(c1ccccc1)c1ccncc1
inactive: [4] 93 % of control | [5] 89 % of control | endpoint: mean survival time, dose: 400.0 mg/kg/injection, schedule: Q04DX003 (ip), vehicle: other 93 % of control

CCOC(=O)c1ccc(NC(=O)CCOc2ccccc2)cc1
inactive: [1] 92 % of control and 101 % of control | [6] 91 % of control | [7] 86 % of control | [2] 92 % of control and 96 % of control | [8] 86 % of control and 87 % of control | [9] 86 % of control | [3] 89 % of control and 95 % of control | [10] 94 % of control

NC(N)=Nc1nc(N)nc(N)n1
inactive: endpoint: mean survival time, dose: 3.13 mg/kg/injection, schedule: Q01DX009 (ip), vehicle: saline with Tween-80 104 % of control | endpoint: mean survival time, dose: 6.25 mg/kg/injection, schedule: Q01DX009 (ip), vehicle: saline with Tween-80 107 % of control | [11] 104 % of control and 110 % of control

Cc1cc(Cl)ccc1NC(=O)Nc1nccs1
inactive: [11] 98 % of control | endpoint: mean survival time, dose: 25.0 mg/kg/injection, schedule: Q01DX009 (ip), vehicle: saline with Tween-80 98 % of control | [12] 95 % of control | [1] 95 % of control | [2] 100 % of control

CS(=O)(=O)Nc1ccc(Nc2c3ccccc3nc3cc(N)ccc23)cc1
active: endpoint: mean survival time, dose: 1.5 mg/kg/injection, schedule: Q01DX001 (ip), vehicle: saline 160 % of control | endpoint: mean survival time, dose: 3.0 mg/kg/injection, schedule: Q01DX001 (ip), vehicle: saline 162 % of control | endpoint: mean survival time, dose: 3.0 mg/kg/injection, schedule: Q01DX009 (ip), vehicle: saline 152 % of control | endpoint: mean survival time, dose: 12.0 mg/kg/injection, schedule: Q01DX001 (ip), vehicle: saline 175 % of control
inactive: endpoint: mean survival time, dose: 5.0 mg/kg/injection, schedule: Q01DX009 (ip), vehicle: saline 114 % of control

C[C@H](CCC[C@H](C)OS(=O)(=O)c1ccccc1)OS(=O)(=O)c1ccccc1
inactive: [11] 101 % of control and 110 % of control | [3] 114 % of control and 104 % of control

COc1cc2c(c(OC)c1OC)-c1cc3c(cc1[C@@H](OC(C)=O)[C@@H]1COC(=O)[C@H]1C2)OCO3
inactive: endpoint: mean survival time, dose: 1.25 mg/kg/injection, schedule: Q01DX009 (ip), vehicle: Klucel (hydroxypropylcellulose) (HPC) 95 % of control | endpoint: mean survival time, dose: 2.5 mg/kg/injection, schedule: Q01DX009 (ip), vehicle: Klucel (hydroxypropylcellulose) (HPC) 103 % of control | endpoint: mean survival time, dose: 5.0 mg/kg/injection, schedule: Q01DX009 (ip), vehicle: Klucel (hydroxypropylcellulose) (HPC) 97 % of control | endpoint: mean survival time, dose: 10.0 mg/kg/injection, schedule: Q01DX009 (ip), vehicle: Klucel (hydroxypropylcellulose) (HPC) 112 % of control

CCCc1cccc[n+]1CC(=O)c1ccccc1
inactive: endpoint: mean survival time, dose: 6.25 mg/kg/injection, schedule: Q04DX003 (ip), vehicle: saline 106 % of control | endpoint: mean survival time, dose: 12.5 mg/kg/injection, schedule: Q04DX003 (ip), vehicle: saline 98 % of control | endpoint: mean survival time, dose: 25.0 mg/kg/injection, schedule: Q04DX003 (ip), vehicle: saline 98 % of control

COc1cc(/C=N/NC(=O)CNC(=O)NCc2ccco2)ccc1O
inactive: [12] 92 % of control | [1] 92 % of control | [2] 92 % of control

Cc1cc(S(=O)(=O)F)cc(Cl)c1OC(=S)N(C)C
inactive: [6] 96 % of control | [8] 96 % of control | [10] 92 % of control

CCCCCCCC(=O)Nc1c(C)cc(C)cc1C
inactive: [1] 91 % of control | [2] 98 % of control | [3] 92 % of control

Cc1cc([N+](=O)[O-])c(S(N)(=O)=O)c([N+](=O)[O-])c1
inactive: [13] 98 % of control | [14] 95 % of control

c1cc2c(ncn3nnnc23)[nH]1
inactive: [13] 91 % of control | [14] 99 % of control | endpoint: mean survival time, dose: 100.0 mg/kg/injection, schedule: Q01DX009 (ip), vehicle: Klucel (hydroxypropylcellulose) (HPC) 86 % of control

Cc1oc([N+](=O)[O-])cc1C(=O)O
inactive: [7] 102 % of control | [9] 102 % of control | [15] 115 % of control

O=C(CC(O)(C(F)(F)F)C(F)(F)F)c1ccc(C(=O)CC(O)(C(F)(F)F)C(F)(F)F)cc1
inactive: endpoint: mean survival time, dose: 12.5 mg/kg/injection, schedule: Q01DX009 (ip), vehicle: other 105 % of control | endpoint: mean survival time, dose: 25.0 mg/kg/injection, schedule: Q01DX009 (ip), vehicle: other 105 % of control | endpoint: mean survival time, dose: 50.0 mg/kg/injection, schedule: Q01DX009 (ip), vehicle: other 113 % of control | [4] 113 % of control | [5] 105 % of control

CSc1ncc(Br)c(C(=O)O)n1
inactive: [7] 96 % of control | [9] 96 % of control | [15] 93 % of control

c1ccc(NC2CCN(C3(c4ccccc4)CCCCC3)CC2)cc1
inactive: endpoint: mean survival time, dose: 25.0 mg/kg/injection, schedule: Q04DX002 (ip), vehicle: saline 97 % of control | endpoint: mean survival time, dose: 50.0 mg/kg/injection, schedule: Q04DX002 (ip), vehicle: saline 94 % of control

CC(C(=O)c1ccc(-c2ccccc2)cc1)C(Cl)c1ccccc1 (centres undefined)
inactive: [7] 95 % of control | [9] 95 % of control | [15] 100 % of control

c1ccc(Cn2cc(CCc3ccncc3)c3ccccc32)cc1
inactive: [12] 88 % of control | [1] 93 % of control | [7] 91 % of control | [9] 92 % of control
